# From patent publication US5691373A, “Nonpeptide endothelin antagonists I” (Warner-Lambert Company, priority 1995, dated 1997)
# Where two headings read alike, the source gives them in different places.
# How the values were obtained:
# [1] = biological target: T1, ETB (Rattus norvegicus, UniProt P21451)
# T1 sequence (P21451 27-442): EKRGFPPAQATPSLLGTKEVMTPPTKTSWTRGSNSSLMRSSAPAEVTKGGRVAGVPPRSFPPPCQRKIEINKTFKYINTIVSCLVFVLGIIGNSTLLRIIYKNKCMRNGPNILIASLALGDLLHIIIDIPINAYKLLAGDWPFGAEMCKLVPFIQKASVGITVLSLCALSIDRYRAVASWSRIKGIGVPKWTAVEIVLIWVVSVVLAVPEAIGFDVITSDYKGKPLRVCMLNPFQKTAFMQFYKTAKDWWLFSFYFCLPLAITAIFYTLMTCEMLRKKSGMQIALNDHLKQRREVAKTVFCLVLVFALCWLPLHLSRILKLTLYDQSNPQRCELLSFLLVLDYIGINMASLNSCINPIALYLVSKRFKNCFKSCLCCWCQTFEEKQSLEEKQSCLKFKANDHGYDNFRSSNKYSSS
# [2] = biological target: T2, ETA (Oryctolagus cuniculus, UniProt A5A8K3)
# T2 sequence (A5A8K3 21-427): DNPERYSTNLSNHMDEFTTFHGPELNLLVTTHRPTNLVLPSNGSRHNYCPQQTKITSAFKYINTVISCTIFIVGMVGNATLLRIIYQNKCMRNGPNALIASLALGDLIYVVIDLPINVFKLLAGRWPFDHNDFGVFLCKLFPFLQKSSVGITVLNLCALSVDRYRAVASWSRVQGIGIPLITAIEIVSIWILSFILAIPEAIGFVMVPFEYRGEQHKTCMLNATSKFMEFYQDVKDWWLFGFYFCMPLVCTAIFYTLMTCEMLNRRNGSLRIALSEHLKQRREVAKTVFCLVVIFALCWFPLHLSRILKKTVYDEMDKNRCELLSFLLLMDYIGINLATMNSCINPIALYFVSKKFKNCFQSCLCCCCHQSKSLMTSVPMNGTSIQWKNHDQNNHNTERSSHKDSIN
# Method: The cells used were rabbit renal artery vascular smooth muscle cells grown in a 48-well dish (1 cm^2) (confluent cells).
# The growth media was Dulbecco's Modified Eagles/Ham's F12 which contained 10% fetal bovine serum and antibiotics (penicillin/streptomycin/fungizone).
# Second, remove the assay buffers, place the dish on ice, and add 150 μL of cold assay buffer described above to each well. […] Next, place dish in a 37° C., water bath for about 2 hours and gently agitate the dish every 15 minutes. Discard the radioactive incubation mixture in the sink and wash wells 3 times with 1 mL of cold phosphate buffered saline.
# [3] = biological target: T2, ETA; remark: listed apart in the source
# [4] = biological target: T2, ETA; test: VERA-A: antagonism of ET-1 stimulated vasoconstriction in the rabbit femoral artery (ETA); type: cell-based
# Method: Male New Zealand rabbits were killed by cervical dislocation and exsanguination. Femoral and pulmonary arteries were isolated, cleaned of connective tissue, and cut into 4-mm rings. The endothelium was denuded by placing the rings over hypodermic tubing (32 gauge for femoral rings and 28 gauge for pulmonary rings, Small Parts, Inc, Miami, Fla.) and gently rolling them. […] Resting tension was adjusted to 3.0 g for femoral and 4.0 g pulmonary arteries; the rings were left for 90 minutes to equilibrate.
# [5] = biological target: T3, human ETB receptor (Homo sapiens, UniProt P24530); test: ERBA-B: [125I]-ET-1 binding, recombinant human ETB receptor expressed in CHO-K1 cells
# T3 construct: expressed in transfected cells; host or cells: CHO-K1 cells, pRc-CMW (so in the source) expression vector, electroporation; membranes used
# T3 sequence (P24530 27-442): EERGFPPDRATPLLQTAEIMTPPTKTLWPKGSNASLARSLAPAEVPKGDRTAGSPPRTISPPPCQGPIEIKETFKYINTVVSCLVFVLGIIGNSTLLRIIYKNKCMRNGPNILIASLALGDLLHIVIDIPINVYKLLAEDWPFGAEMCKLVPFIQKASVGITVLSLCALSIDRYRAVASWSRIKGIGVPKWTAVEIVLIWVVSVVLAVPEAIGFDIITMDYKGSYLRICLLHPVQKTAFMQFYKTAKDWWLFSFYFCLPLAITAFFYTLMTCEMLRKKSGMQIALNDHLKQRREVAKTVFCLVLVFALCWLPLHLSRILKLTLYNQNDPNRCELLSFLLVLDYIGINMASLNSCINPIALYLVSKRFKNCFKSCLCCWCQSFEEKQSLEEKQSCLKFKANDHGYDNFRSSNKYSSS
# [6] = ERBA-A IC50, [125I]-ET-1, rabbit renal artery vascular smooth muscle cells
# [7] = ET-1, rabbit femoral artery, read-out: VERA-A pA2 (converted)
# [8] = human cloned ETB receptor, read-out: ERBA-B IC50, human cloned receptor data
# [9] = read-out: ERBA-A IC50, [125I]-ET-1, rabbit renal artery vascular smooth muscle cells
# [10] = read-out: AAR-A, ET-1 (0.3 nM) stimulated arachidonic acid release
SMILES,"IC50 [2, 6] [µM]",IC50 [3] [µM],"Kb [4, 7] [µM]","IC50 [5, 8] [µM]",further results
"COc1ccc(C2(O)OC(=O)C(c3ccc4c(c3)OCO4)=C2Cc2cccc(Cl)c2)cc1 (stereo not shown) [Example 75, 3-Benzo[1,3]dioxol-5-yl-4-(3-chlorobenzyl)-5-hydroxy-5-(4-methoxyphenyl)-5H -furan-2-one]",0.016,0.071,,,IC50 [1]: 1.2 µM
COc1ccc(C2(O)OC(=O)C(c3ccc4c(c3)OCO4)=C2Cc2ccc(C)cc2)cc1 (stereo not shown) [Example 76],0.05,0.52,,,IC50 [1]: 0.39 µM
"COc1ccc(C2(O)OC(=O)C(c3ccc4c(c3)OCO4)=C2Cc2cccc(C(F)(F)F)c2)cc1 (stereo not shown) [Example 82, 3-Benzo[1,3]dioxol-5-yl-5-hydroxy-5-(4-methoxyphenyl)-4-(3-trifluoromethylbenzyl)-5H-furan-2-one]",0.02,0.14,2.51,,IC50 [1]: 1.3 µM
"COc1ccc(C2(O)OC(=O)C(c3ccc4c(c3)OCO4)=C2Cc2ccc(N(C)C)cc2)cc1 (stereo not shown) [Example 85, 3-Benzo[1,3]dioxol-5-yl-4-(4-dimethylaminobenzyl)-5-hydroxy-5-(4-methoxyphenyl)-5H-furan-2-one]",0.023,0.2,0.398,1.6,
"COc1ccc(C2(O)OC(=O)C(c3ccc4c(c3)OCO4)=C2Cc2ccc(OC)c(C)c2)cc1 (stereo not shown) [Example 89, 3-Benzo[1,3]dioxol-5-yl-5-hydroxy-4-(4-methoxy-3-methylbenzyl)-5-(4-methoxyphenyl)-5H-furan-2-one]",,,,,"VERA-A pA2 ([4]; ET-1, rabbit femoral artery): 6.3; IC50 [2, 9]: 0.006 µM; IC50 [3, 10]: 0.039 µM"
"COc1ccc(C2(O)OC(=O)C(c3ccc4c(c3)OCO4)=C2Cc2cccc(C)c2)cc1 (stereo not shown) [Example 90, 3-Benzo[1,3]dioxol-5-yl-5-hydroxy-5-(4-methoxyphenyl)-4-(3-methylbenzyl)-5H -furan-2-one]",0.02,0.088,,3.5,
"CCCOc1cccc(CC2=C(c3cc(OC)cc(OC)c3)C(=O)OC2(O)c2ccc(OC)cc2)c1 (stereo not shown) [Example 126, 3-(3,5-Dimethoxyphenyl)-5-hydroxy-5-(4-methoxyphenyl)-4-(3-propoxybenzyl)-5 H-furan-2-one]",0.01,0.086,0.2,1.5,
"COc1ccc(C2(O)OC(=O)C(c3cc(OC)cc(OC)c3)=C2Cc2cccc(Cl)c2)cc1 (stereo not shown) [Example 127, 4-(3-Chlorobenzyl)-3-(3,5-dimethoxyphenyl)-5-hydroxy-5-(4-methoxyphenyl)-5H -furan-2-one]",0.013,0.15,0.631,1.2,
"COc1ccc(C2(O)OC(=O)C(c3cc(OC)cc(OC)c3)=C2Cc2cccc(C(F)(F)F)c2)cc1 (stereo not shown) [Example 128, 3-(3,5-Dimethoxyphenyl)-5-hydroxy-5-(4-methoxyphenyl)-4-(3-trifluoromethylbenzyl)-5H-furan-2-one]",0.023,0.21,1.26,1.6,
"COc1ccc(C2(O)OC(=O)C(c3cc(OC)cc(OC)c3)=C2Cc2cccc(OC)c2)cc1 (stereo not shown) [Example 130, 3-(3,5-Dimethoxyphenyl)-5-hydroxy-4-(3-methoxybenzyl)-5-(4-methoxyphenyl)-5 H-furan-2-one]",0.097,0.03,0.2,1.2,
"COc1ccc(C2(O)OC(=O)C(c3cc(OC)cc(OC)c3)=C2Cc2cccnc2)cc1 (stereo not shown) [Example 133, 3-(3,5-Dimethoxyphenyl)-5-hydroxy-5-(4-methoxyphenyl)-4-pyridin-3methyl-5H-furan-2-one]",0.03,0.076,,6.8,
"CCCOc1cccc(CC2=C(c3ccc4c(c3)OCO4)C(=O)OC2(O)c2ccc(OC)cc2)c1 (stereo not shown) [Example 159, 3-Benzo[1,3]dioxol-5-yl-5-hydroxy-5-(4-methoxyphenyl)-4-(3-propoxybenzyl)-5 H-furan-2-one]",0.012,0.036,0.1,,IC50 [1]: 0.56 µM
"COC(=O)c1ccc(CC2=C(c3ccc4c(c3)OCO4)C(=O)OC2(O)c2ccc(OC)cc2)cc1 (stereo not shown) [Example 182, 4-[4-Benzo[1,3]dioxol-5-yl-2-hydroxy-2-(4-methoxyphenyl)-5-oxo-2,5-dihydrof uran-3-ylmethyl]benzoic acid methyl ester]",0.016,0.05,,2,
"COc1ccc(C2(O)OC(=O)C(c3ccc4c(c3)OCO4)=C2Cc2ccccc2)cc1OC (stereo not shown) [Example 190, 3-Benzo[1,3]dioxol-5-yl-4-benzyl-5-(3,4-dimethoxyphenyl)-5-hydroxy-5H-furan-2-one]",0.065,0.78,,,IC50 [1]: 0.75 µM
"COc1ccc(C2(O)OC(=O)C(c3ccc4c(c3)OCO4)=C2CC2CCCCC2)cc1 (stereo not shown) [Example 221, 3-Benzo[1,3]dioxol-5-yl-4-cyclohexylmethyl-5-hydroxy-5-(4-methoxyphenyl)-5H -furan-2-one]",,,,0.24,"VERA-A pA2 ([4]; ET-1, rabbit femoral artery): 6.4; IC50 [2, 9]: 0.02 µM; IC50 [3, 10]: 0.12 µM"
"COc1ccc(C2(O)OC(=O)C(c3ccc4c(c3)OCO4)=C2Cc2cc(OC)c(OC)c(OC)c2)cc1 (stereo not shown) [Example 281, 3-benzo[1,3]dioxol-5-yl-5-hydroxy-5-(4-methoxyphenyl)-4-(3,4,5-trimethoxybenzyl)-5H-furan-2-one]",0.0006,7.7,,,
"COc1ccc(C(=O)/C(Cc2cc(OC)c(OC)c(OC)c2)=C(\C(=O)O)c2ccc3c(c2)OCO3)cc1 [Example 354, Sodium 2-Benzo[1,3]dioxol-5-yl-4-(4-methoxy-phenyl)-4-oxo-3-(3,4,5-trimethoxy-benzyl)-but-2-enoate]",0.0008,< 0.001,,,"IC50 ([5]; ERBA-B IC50, human cloned receptor data): 0.91 µM; Kb [4]: 0.0316 µM"
"COc1ccc(C2(O)OC(=O)C(c3ccc4c(c3)OCO4)=C2Cc2cc(OC)c(OC)c(OC)c2)cc1C (stereo not shown) [Example 383, 3-Benzo[1,3]dioxol-5-yl-5-hydroxy-5-(4-methoxy-3-methyl-phenyl)-4-(3,4,5-trimethoxy-benzyl)-5H-furan-2-one]",0.0005,7.4,,0.29,
"COc1ccc(C2(O)OC(=O)C(c3ccc4c(c3)OCO4)=C2Cc2ccc(NC(C)=O)cc2)cc1C (stereo not shown) [Example 384, N-{4-[4-Benzo[1,3]dioxol-5-yl-2-hydroxy-2-(4-methoxy-3-methyl-phenyl)-5-oxo-2,5-dihydro-furan-3-ylmethyl]-phenyl}-acetamide]",0.001,0.00021,0.0501,0.76,
"COc1ccc(C2(O)OC(=O)C(c3cc(OC)cc(OC)c3)=C2Cc2cc(OC)c(OC)c(OC)c2)cc1 (stereo not shown) [Example 388, 3-(3,5-Dimethoxy-phenyl)-5-hydroxy-5-(4-methoxyphenyl)-4-(3,4,5-trimethoxy-benzyl)-5H-furan-2-one]",0.0014,0.00026,0.1,1.1,
"COc1ccc(C2(O)OC(=O)C(c3cc(OC)cc(OC)c3)=C2Cc2ccc(OC(C)C)c(OC)c2)cc1 (stereo not shown) [Example 389, 3-(3,5-Dimethoxy-phenyl)-5-hydroxy-4-(4-isopropoxy-3-methoxy-benzyl)-5-(4-methoxy-phenyl)-5H-furan-2-one]",0.0036,0.0024,,1.1,
